Data as given in US20240150293A1, “SPIROCYCLOHEXANE DERIVATIVES, PHARMACEUTICAL COMPOSITIONS CONTAINING THEM AND THEIR USES AS ANTI-APOPTOTIC INHIBITORS” (LES LABORATOIRES SERVIER, priority 2021, published 2024).
Like-named read-outs stand apart in the source and are kept apart here.

Key:
[1] = target: Cy5-labelled Mcl1 (amino acids 171-321) C286S protein (UniProtKB Q07820) (Homo sapiens (Human), UniProt Q07820, C286S); assay: Inhibition of Mcl-1 by the fluorescence quenching assay (Example A, Method B); type: binding
Method in brief: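 Eleven-point compound series incubated 2 h at room temperature with 1 nM Cy5-tagged protein and quencher-labelled PUMA peptide at 10, 20 or 400 nM in HEPES/NaCl/Tween 20, pH 7.4, 5% DMSO. IC50 for 50% fluorescence increase by 4-parameter fit, then Ki derived (complete cKi or estimated eKi).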

[2] = test system: NCI-H929 cell lines; assay: In vitro cytotoxicity, CellTiter-Glo (CTG) assay (Example B, Method B); type: cell-based; conditions: Homo sapiens, NCI-H929, 48 h, NCI-H929 cells, 48 h incubation, read-out: C50
Method in brief: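 ATP-based luminescence (CellTiter-Glo) after 48 h incubation at 37° C., 5% CO2 gave NCI-H929 viability. Eleven concentrations tested, highest final 30 μM, dispensed acoustically from 10 mM DMSO stocks; C50 defined as concentration reaching 50% viability.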

Chain of Cy5-labelled Mcl1 (amino acids 171-321) C286S protein (Q07820 171-321 C286S): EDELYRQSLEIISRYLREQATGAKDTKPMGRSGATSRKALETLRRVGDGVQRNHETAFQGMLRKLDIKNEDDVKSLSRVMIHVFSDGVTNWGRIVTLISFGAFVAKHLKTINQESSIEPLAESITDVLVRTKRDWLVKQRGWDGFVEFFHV

| Ki [1] | Ki ([1]; Ki determined from IC50) | inhibition at 1 µM ([1]; @ 1 μM, read-out: Mcl-1 inhibition, % at a single concentration) | Compound | IC50 [2] |
| --- | --- | --- | --- | --- |
| 0.0308 nM |  |  | C[C@@H](COc1ccnc2c1[C@H](C)CC[C@H]2F)C[C@H]1Cc2cc3c(cc2[C@]12CC[C@@](Nc1cccc(Cl)c1)(C(=O)O)CC2)OCO3 [Example 961, (1r,4S,6′S)-4-(3-chloroanilino)-6′-[(2R)-3-{[(5R,8R)-8-fluoro-5-methyl-5,6,7,8-tetrahydroquinolin-4-yl]oxy}-2-methylpropyl]-6′,7′-dihydro-2′H-spiro[cyclohexane-1,5′-indeno[5,6-d][1,3]dioxole]-4-carboxylic acid] | 98.8 nM |
|  | 300 nM |  | C[C@@H](COc1ccnc2c1[C@H](C)CCC2)CN1Cc2cc3c(cc2[C@]12CC[C@](Nc1cccc(Cl)c1)(C(=O)O)CC2)OCO3 [Example 45, (1r,4R)-4-(3-chloroanilino)-6′-[(2R)-2-methyl-3-{[(5R)-5-methyl-5,6,7,8-tetrahydroquinolin-4-yl]oxy}propyl]-6′,7′-dihydro-2′H-spiro[cyclohexane-1,5′-[1,3]dioxolo[4,5-f]isoindole]-4-carboxylic acid] | 24200 nM |
|  | 0.25 nM |  | COc1cc2c(cc1F)CN(C[C@@H](C)COc1ccnc3c1[C@H](C)CCC3)[C@]21CC[C@](Nc2cccc(Cl)c2)(C(=O)O)CC1 [Example 43, (1s,4S)-4-(3-chloroanilino)-5′-fluoro-6′-methoxy-2′-[(2R)-2-methyl-3-{[(5R)-5-methyl-5,6,7,8-tetrahydroquinolin-4-yl]oxy}propyl]-2′,3′-dihydrospiro[cyclohexane-1,1′-isoindole]-4-carboxylic acid] | 162 nM |
|  |  | 13.6% | CCN(CC)C(=O)OC(C)OC(=O)[C@]1(Nc2cccc(Cl)c2)CC[C@@]2(CC1)c1cc3c(cc1C[C@@H]2C[C@@H](C)COc1ccnc2c1[C@H](C)CCC2)OCO3 (stereo partly drawn) [Example 949, 1-[(diethylcarbamoyl)oxy]ethyl (1r,4S,6′S)-4-(3-chloroanilino)-6′-[(2R)-2-methyl-3-{[(5R)-5-methyl-5,6,7,8-tetrahydroquinolin-4-yl]oxy}propyl]-6′,7′-dihydro-2′H-spiro[cyclohexane-1,5′-indeno[5,6-d][1,3]dioxole]-4-carboxylate] | > 30000 nM |
| 0.644 nM |  |  | C[C@@H](COc1ccnc2c1[C@H](C)CCC2)CC1Cc2c(Cl)c(Cl)ccc2[C@]12CC[C@@](Nc1cccc(Cl)c1)(C(=O)O)CC2 (single isomer, unassigned) [Example 751] | 279 nM |
| 0.0579 nM |  |  | C[C@@H](COc1ccnc2c1[C@H](C)CC[C@H]2F)C[C@H]1Cc2cc3c(cc2[C@]12CC[C@@](Nc1cccc(Cl)c1)(C(=O)O)CC2)OCCO3 [Example 964, (1r,4S,7′S)-4-(3-chloroanilino)-7′-[(2R)-3-{[(5R,8R)-8-fluoro-5-methyl-5,6,7,8-tetrahydroquinolin-4-yl]oxy}-2-methylpropyl]-2′,3′,7′,8′-tetrahydrospiro[cyclohexane-1,6′-indeno[5,6-b][1,4]dioxine]-4-carboxylic acid] | 109 nM |
| 0.0509 nM |  |  | C[C@@H](COc1ccnc2c1[C@H](C)CCC2)C[C@H]1Cc2ccc(CO)cc2[C@]12CC[C@@](Nc1cccc(Cl)c1)(C(=O)O)CC2 [Example 870, (1r,2′S,4S)-4-(3-chloroanilino)-6′-(hydroxymethyl)-2′-[(2R)-2-methyl-3-{[(5R)-5-methyl-5,6,7,8-tetrahydroquinolin-4-yl]oxy}propyl]-2′,3′-dihydrospiro[cyclohexane-1,1′-indene]-4-carboxylic acid] | 126 nM |
| 0.105 nM |  |  | C[C@@H](COc1ccnc2c1[C@H](C)CCC2)C[C@H]1Cc2cc3c(cc2[C@]12CC[C@@](Nc1cccc(Cl)c1F)(C(=O)O)CC2)OCO3 [Example 846, (1r,4S,6′S)-4-(3-chloro-2-fluoroanilino)-6′-[(2R)-2-methyl-3-{[(5R)-5-methyl-5,6,7,8-tetrahydroquinolin-4-yl]oxy}propyl]-6′,7′-dihydro-2′H-spiro[cyclohexane-1,5′-indeno[5,6-d][1,3]dioxole]-4-carboxylic acid] | 42 nM |
| 0.0299 nM |  |  | CC[C@@H]1COc2cc3c(cc2O1)[C@]1(CC[C@@](Nc2cccc(Cl)c2)(C(=O)O)CC1)[C@@H](C[C@@H](C)COc1ccnc2c1[C@H](C)CCC2)C3 [Example 979, (1r,3′R,4S,7′S)-4-(3-chloroanilino)-3′-ethyl-7′-[(2R)-2-methyl-3-{[(5R)-5-methyl-5,6,7,8-tetrahydroquinolin-4-yl]oxy}propyl]-2′,3′,7′,8′-tetrahydrospiro[cyclohexane-1,6′-indeno[5,6-b][1,4]dioxine]-4-carboxylic acid] | 67.2 nM |
| 0.353 nM |  |  | CCOc1cc2c(cc1Cl)C[C@H](C[C@@H](C)COc1ccnc3c1[C@H](C)CCC3)[C@]21CC[C@](Nc2cccc(Cl)c2)(C(=O)O)CC1 [Example 816, (1r,2′S,4S)-5′-chloro-4-(3-chloroanilino)-6′-ethoxy-2′-[(2R)-2-methyl-3-{[(5R)-5-methyl-5,6,7,8-tetrahydroquinolin-4-yl]oxy}propyl]-2′,3′-dihydrospiro[cyclohexane-1,1′-indene]-4-carboxylic acid] | 101 nM |
| 0.438 nM |  |  | COc1cc2c(cc1OC)[C@]1(CC[C@@](Nc3cccc(Cl)c3)(C(=O)O)CC1)[C@@H](C[C@@H](C)COc1ccnc3c1[C@H](C)CCC3)C2 [Example 835, (1r,2′S,4S)-4-(3-chloroanilino)-5′,6′-dimethoxy-2′-[(2R)-2-methyl-3-{[(5R)-5-methyl-5,6,7,8-tetrahydroquinolin-4-yl]oxy}propyl]-2′,3′-dihydrospiro[cyclohexane-1,1′-indene]-4-carboxylic acid] | 146 nM |
| 0.162 nM |  |  | CC(C)Oc1cc2c(cc1Cl)C[C@H](C[C@@H](C)COc1ccnc3c1[C@H](C)CCC3)[C@]21CC[C@](Nc2cccc(Cl)c2)(C(=O)O)CC1 [Example 819, (1r,2′S,4S)-5′-chloro-4-(3-chloroanilino)-2′-[(2R)-2-methyl-3-{[(5R)-5-methyl-5,6,7,8-tetrahydroquinolin-4-yl]oxy}propyl]-6′-[(propan-2-yl)oxy]-2′,3′-dihydrospiro[cyclohexane-1,1′-indene]-4-carboxylic acid] | 151 nM |
| 0.518 nM |  |  | C[C@@H](COc1ccnc2c1[C@H](C)CCC2)C[C@H]1Cc2cc(F)c(F)cc2[C@]12CC[C@@](Nc1cccc(Cl)c1)(C(=O)O)CC2 [Example 775, (1r,2′S,4S)-4-(3-chloroanilino)-5′,6′-difluoro-2′-[(2R)-2-methyl-3-{[(5R)-5-methyl-5,6,7,8-tetrahydroquinolin-4-yl]oxy}propyl]-2′,3′-dihydrospiro[cyclohexane-1,1′-indene]-4-carboxylic acid] | 84.4 nM |
| 1 nM |  |  | COC(=O)OC(C)OC(=O)[C@]1(Nc2cccc(Cl)c2)CC[C@@]2(CC1)c1cc3c(cc1C[C@@H]2C[C@@H](C)COc1ccnc2c1[C@H](C)CCC2)OCO3 (stereo partly drawn) [Example 943, 1-[(methoxycarbonyl)oxy]ethyl (1r,4S,6′S)-4-(3-chloroanilino)-6′-[(2R)-2-methyl-3-{[(5R)-5-methyl-5,6,7,8-tetrahydroquinolin-4-yl]oxy}propyl]-6′,7′-dihydro-2′H-spiro[cyclohexane-1,5′-indeno[5,6-d][1,3]dioxole]-4-carboxylate] | 228 nM |
| 0.0917 nM |  |  | Cc1ccc2c(c1)C[C@H](C[C@@H](C)COc1ccnc3c1[C@H](C)CCC3)[C@]21CC[C@](Nc2cccc(Cl)c2)(C(=O)O)CC1 [Example 853, (1r,2′S,4S)-4-(3-chloroanilino)-5′-methyl-2′-[(2R)-2-methyl-3-{[(5R)-5-methyl-5,6,7,8-tetrahydroquinolin-4-yl]oxy}propyl]-2′,3′-dihydrospiro[cyclohexane-1,1′-indene]-4-carboxylic acid] | 137 nM |
| 0.106 nM |  |  | CC(C)[C@@H]1CCOc2cc3c(cc2O1)[C@]1(CC[C@@](Nc2cccc(Cl)c2)(C(=O)O)CC1)[C@@H](C[C@@H](C)COc1ccnc2c1[C@H](C)CCC2)C3 [Example 998, (1r,4S,4'S,8′S)-4-(3-chloroanilino)-8′-[(2R)-2-methyl-3-{[(5R)-5-methyl-5,6,7,8-tetrahydroquinolin-4-yl]oxy}propyl]-4′-(propan-2-yl)-3′,4′,8′,9′-tetrahydro-2′H-spiro[cyclohexane-1,7′-indeno[5,6-b][1,4]dioxepine]-4-carboxylic acid] | 63.1 nM |
| 4.15 nM |  |  | CC(C)[C@@H]1CCOc2cc3c(cc2O1)C[C@H](C[C@@H](C)COc1ccnc2c1[C@H](C)CCC2)[C@]31CC[C@](Nc2cccc(Cl)c2)(C(=O)O)CC1 [Example 997, (1r,2′S,4S,8′S)-4-(3-chloroanilino)-8′-[(2R)-2-methyl-3-{[(5R)-5-methyl-5,6,7,8-tetrahydroquinolin-4-yl]oxy}propyl]-2′-(propan-2-yl)-3′,4′,8′,9′-tetrahydro-2′H-spiro[cyclohexane-1,7′-indeno[5,6-b][1,4]dioxepine]-4-carboxylic acid] | 965 nM |
| 0.764 nM |  |  | C[C@@H](COc1ccnc2c1[C@H](C)CCC2)C[C@@H]1Cc2ccc(OCC3CC3)cc2[C@]12CC[C@@](Nc1cccc(Cl)c1)(C(=O)O)CC2 [Example 790, (1r,2′R,4R)-4-(3-chloroanilino)-6′-(cyclopropylmethoxy)-2′-[(2R)-2-methyl-3-{[(5R)-5-methyl-5,6,7,8-tetrahydroquinolin-4-yl]oxy}propyl]-2′,3′-dihydrospiro[cyclohexane-1,1′-indene]-4-carboxylic acid] | 1460 nM |
